This passage reports IC50 results from patent EP4818178A1, “PREPARATION AND USE OF PYRIMIDOTHIOPYRANONE KRAS MUTANT PROTEIN INHIBITOR” (Ya Therapeutics Inc, priority 2024, dated 2025).

The target of the assay is KRasG12D (Homo sapiens, UniProt P01116, G12D). As to the kind of experiment: KRAS inhibitory activity test, TR-FRET (inhibition of binding of KRasG12D to GTP, SOS/GTP nucleotide exchange). Format: biochemical. The following applies: read-out: IC50 values of the compounds for inhibiting KRAS enzymes, G12D. On the procedure: • 1. […] Reagent Preparation: • a. Storage Reagents:
Prepare a 1L solution by mixing 20mL of 1000mM HEPES, 20mL of 500mM EDTA, 10mL of 5M sodium chloride, 0.1mL of 100% Tween 20, and 949.9mL of water. Sterilize by filtration and store at 4°C.
Prepare a 1L solution by mixing 20mL of 1000mM HEPES, 10mL of 1000mM magnesium chloride, 30mL of 5M sodium chloride, 0.05mL of 100% Tween 20, and 939.95mL of water. Sterilize by filtration and store at 4°C. 3) KRAS/Bodipy GDP/Tb-SA Mixture: Mix 9.5 µL of 95 µM KRasG12D protein with 440.5 µL of KRAS nucleotide exchange buffer. Incubate at room temperature for 1 hour. Then, mix with 8.4 µL of 17.9 µM Tb-SA, 1.8 µL of 5 mM Bodipy GDP, and 9539.8 µL of KRAS experimental buffer to prepare […]. After mixing, incubate at room temperature for 6 hours and store at -80°C.
• 1) KRAS Enzyme Solution: Mix 73.3 µL of KRAS/Bodipy GDP/Tb-SA mixture with 2126.7 µL of KRAS experimental buffer to prepare a 2200 µL solution. • 2) SOS/GTP Mixture
c. Experimental Procedure: Mix 1.59 µL of 166 µM SOS protein with 198 µL of 100 mM... GTP and 0.41 µL KRAS buffer were prepared to a 2200 µL solution. The stock solution concentration of the control compound was 1 mM, and the stock solution concentration of the test compound was 10 mM. 9 µL of the control compound and the test compound were transferred to a 384-LDV plate. The compound on the LDV plate was 3-fold diluted 10-point using Bravo. 9 nL of the compound on the LDV plate was transferred to the experimental plate using ECHO. 3 µL of a 3 nM Kras/0.5 nM TB-SA/30 nM BodipyGDP mixture and 3 µL of Ras buffer were added to each well of the experimental plate using a Dragonfly autopilot. The plate was centrifuged at 1000 rpm for 1 minute. The plate was incubated at room temperature for 1 hour. 3 µL of 120 nM SOS/9 mM KRAS buffer was added to each well of the experimental plate using a Dragonfly autopilot. The […] was centrifuged at 1000 rpm for 1 minute; the plate was incubated at room temperature for 1 hour; the plate was read and the data were recorded using Envision; the data were analyzed using Excel and Xlfit to calculate the IC50of the test compound. "++++" indicates IC50≤ 10 nM; "+++" indicates 10 nM < IC50≤ 100 nM; "++" indicates 100 nM < IC50≤ 2000 nM; "+" indicates 2000 nM < IC50.
In general terms: In TR-FRET formats the signal depends on donor and acceptor labels being close together.
By IC50 is commonly meant the midpoint of a concentration-inhibition curve. Regarding `CC#Cc1cc(N)c(F)c([C@@H]2Cc3nc(OC[C@@]45CCCN4C/C(=C\F)C5)nc(N4CC5CCC(C4)N5)c3CS2(=O)=O)c1C(F)(F)F` [Compound 24A, (7S)-7-(3-amino-2-fluoro-5-(prop-1-yn-1-yl)-6-(trifluoromethyl)phenyl)-4-(3,8-diazabicyclo[3.2.1]octane-3-yl)-2-(((S)-2-(fluoromethylene)tetrahydro-1H-pyrrolazin-7a(5 H)-yl)methoxy)-7,8-dihydro-5H-thiopyrano[4,3-d]pyrimidine-6,6-dioxide], the IC50 is at most 10 nM.
With `Cc1cc(N)c(F)c([C@@H]2Cc3nc(OC[C@@]45CCCN4C[C@H](F)C5)nc(N4C[C@H]5CC[C@@H](C4)N5)c3CS2(=O)=O)c1C(F)(F)F` [Compound 29A, (7S)-7-(3-amino-2-fluoro-5-methyl-6-(trifluoromethyl)phenyl)-4-((1R,5S)-3,8-diazabicyclo[3.2.1]octane-3-yl)-2-(((2R,7AS)-2-fluorotetrahydro-1H-pyrrolazin-7a(5H)-yl)methoxy)-7,8-dihydro-5H-thiopyrano[4,3-d]pyrimidine 6,6-Dioxide] the figure was at most 10 nM; with `CC#Cc1cc(N)cc(C2Cc3nc(OC[C@@]45CCCN4CC(=C(F)F)C5)nc(N4CC5CCC(C4)N5)c3CS2(=O)=O)c1C(F)(F)F` (stereo partly drawn) [Compound 31], at most 10 nM; with `Cc1cc(N)cc([C@@H]2Cc3nc(OC[C@@]45CCCN4C/C(=C\F)C5)nc(N4CC5CCC(C4)N5)c3CS2(=O)=O)c1C(F)(F)F` [Compound 39A], at most 10 nM.
For `Cc1cc(N)cc(C2Cc3nc(OC[C@@]45CCCN4C/C(=C\F)C5)nc(N4CC5CCC(C4)N5)c3CS2(=O)=O)c1C(F)(F)F` (stereo partly drawn) [Compound 35], the IC50 was at most 10 nM.
Take `C=C1CN2CCC[C@@]2(COc2nc3c(c(N4CC5CCC(C4)N5)n2)CS(=O)(=O)C(c2c(F)c(N)cc(C#CC)c2C(F)(F)F)C3)C1` (stereo partly drawn) [Compound 22, 7-(3-amino-2-fluoro-5-(prop-1-yn-1-yl)-6-(trifluoromethyl)phenyl)-4-(3,8-diazabicyclo[3.2.1]octane-3-yl)-2-(((S)-2-(methylene)tetrahydro-1H-pyrrolazin-7a(5H)-yl)methoxy)-7,8-dihydro-5H-thiopyrano[4,3-d]pyrimidine-6,6-dioxide]: the 50% inhibitory concentration (IC50) was at most 10 nM.
In the case of `Cc1cc(N)c(F)c([C@H]2Cc3nc(OC[C@@]45CCCN4C[C@H](F)C5)nc(N4C[C@H]5CC[C@@H](C4)N5)c3CS2(=O)=O)c1C(F)(F)F` [Compound 1B, (7R)-7-(3-amino-2-fluoro-5-methyl-6-(trifluoromethyl)phenyl)-4-((1R,5S)-3,8-diazabicyclo[3.2.1]octane-3-yl)-2-(((2R,7AS)-2-fluorotetrahydro-1H-pyrrolazin-7a(5H)-yl)methoxy)-7,8-dihydro-5H-thiopyrano[4,3-d]pyrimidine 6,6-Dioxide], the IC50 was in the range of 10 to 100 nM.
With `Cc1cc(O)c(F)c([C@@H]2Cc3nc(OC[C@@]45CCCN4C[C@H](F)C5)nc(N4CCC[C@@](C)(O)C4)c3CS2(=O)=O)c1C(F)(F)F` [Compound 6A, (7S)-7-(2-fluoro-3-hydroxy-5-methyl-6-(trifluoromethyl)phenyl)-2-(((2R,7AS)-2-fluorotetrahydro-1H-pyrrolazin-7a(5H)-yl)methoxy)-4-((R)-3-hydroxy-3-methylpiperidin-1-yl)-7,8-dihydro-5H-thiopyrano[4,3-d]pyrimidine-6,6-dioxide] the figure was at most 10 nM; with `C=C1CN2CCC[C@@]2(COc2nc3c(c(N4CC5CCC(C4)N5)n2)CS(=O)(=O)C(c2c(F)c(N)cc(C)c2C(F)(F)F)C3)C1` (stereo partly drawn) [Compound 11, 7-(3-amino-2-fluoro-5-methyl-6-(trifluoromethyl)phenyl)-4-(3,8-diazabicyclo[3.2.1]octane-3-yl)-2-(((S)-2-(methylene)tetrahydro-1H-pyrrolazin-7a(5H)-yl)methoxy)-7,8-d ihydro-5H-thiopyrano[4,3-d]pyrimidine-6,6-dioxide], at most 10 nM; with `CC#Cc1cc(N)c(F)c([C@@H]2Cc3nc(OC[C@@]45CCCN4C[C@H](F)C5)nc(N4CC5CCC(C4)N5)c3CS2(=O)=O)c1C(F)(F)F` [Compound 21A, (7S)-7-(3-amino-2-fluoro-5-(prop-1-yn-1-yl)-6-(trifluoromethyl)phenyl)-4-(3,8-diazabicyclo[3.2.1]octane-3-yl)-2-(((2R,7AS)-2-fluorotetrahydro-1H-pyrrolazin-7a(5H)-yl)methoxy)-7,8-dihydro-5H-thiopyrano[4,3-d]pyrimidine-6,6-dioxide], at most 10 nM.
`CC#Cc1cc(N)c(F)c(C2Cc3nc(OC[C@@]45CCCN4C/C(=C\F)C5)nc(N4CC5CCC(C4)N5)c3CS2(=O)=O)c1C(F)(F)F` (stereo partly drawn) [Compound 24, 7-(3-amino-2-fluoro-5-(prop-1-yn-1-yl)-6-(trifluoromethyl)phenyl)-4-(3,8-diazabicyclo[3.2.1]octane-3-yl)-2-(((S)-2-(fluoromethylene)tetrahydro-1H-pyrrolazin-7a(5H)-yl)methoxy)-7,8-dihydro-5H-thiopyrano[4,3-d]pyrimidine-6,6-dioxide]: the IC50 is at most 10 nM.
Take `Cc1cc(N)nc(C2Cc3nc(OC[C@@]45CCCN4CC(=C(F)F)C5)nc(N4CC5CCC(C4)N5)c3CS2(=O)=O)c1C(F)(F)F` (stereo partly drawn) [Compound 18, 7-(6-amino-4-methyl-3-(trifluoromethyl)pyridin-2-yl)-2-(((S)-2-(difluoromethylene)tetrahydro-1H-pyrrolazin-7a(5H)-yl)methoxy)-4-(3,8-diazabicyclo[3.2.1]octane-3-yl)-7,8-dihydro-5H-thiopyrano[4,3-d]pyrimidine-6,6-dioxide]: the 50% inhibitory concentration (IC50) is at most 10 nM.
With `CC#Cc1cc(N)cc([C@@H]2Cc3nc(OC[C@@]45CCCN4CC(=C(F)F)C5)nc(N4CC5CCC(C4)N5)c3CS2(=O)=O)c1C(F)(F)F` [Compound 31A] the figure was at most 10 nM; with `C=C1CN2CCC[C@@]2(COc2nc3c(c(N4CC5CCC(C4)N5)n2)CS(=O)(=O)[C@H](c2c(F)c(N)cc(C#CC)c2C(F)(F)F)C3)C1` [Compound 22A, (7S)-7-(3-amino-2-fluoro-5-(prop-1-yn-1-yl)-6-(trifluoromethyl)phenyl)-4-(3,8-diazabicyclo[3.2.1]octane-3-yl)-2-(((S)-2-(methylene)tetrahydro-1H-pyrrolazin-7a(5H)-yl)methoxy)-7,8-dihydro-5H-thiopyrano[4,3-d]pyrimidine-6,6-dioxide], at most 10 nM.
In the case of `Cc1cc(N)nc([C@@H]2Cc3nc(OC[C@@]45CCCN4C[C@H](F)C5)nc(N4C[C@H]5CC[C@@H](C4)N5)c3CS2(=O)=O)c1C(F)(F)F` [Compound 3A, (7S)-7-(6-amino-4-methyl-3-(trifluoromethyl)pyridin-2-yl)-4-((1R,5S)-3,8-diazabicyclo[3.2.1]octane-3-yl)-2-(((2R,7AS)-2-fluorotetrahydro-1H-pyrrolazin-7a(5H)-yl)methoxy)-7,8-dihydro-5H-thiopyrano[4,3-d]pyrimidine 6,6-Dioxide], the half-inhibitory concentration (IC50) is 10 to 100 nM.
For `Cc1cc(N)c(F)c([C@@H]2Cc3nc(OC[C@@]45CCCN4C[C@H](F)C5)nc(N4C[C@H]5CC[C@@H](C4)N5)c3CS2(=O)=O)c1C(F)(F)F` [Compound 35A, (7S)-7-(3-amino-2-fluoro-5-methyl-6-(trifluoromethyl)phenyl)-4-((1R,5S)-3,8-diazabicyclo[3.2.1]octane-3-yl)-2-(((2R,7AS)-2-fluorotetrahydro-1H-pyrrolazin-7a(5H)-yl)methoxy)-7,8-dihydro-5H-thiopyrano[4,3-d]pyrimidine 6,6-Dioxide], the IC50 is at most 10 nM.
On to “7-(3-amino-2-fluoro-5-methyl-6-(trifluoromethyl)phenyl)-4-(3,8-diazabicyclo[3.2.1]o ctane-3-yl)-2-(((S)-2-(difluoromethylene)tetrahydro-1H-pyrrolazin-7a(5H)-yl)methox y)-7,8-dihydro-5H-thiopyrano[4,3-d]pyrimidine-6,6-dioxide [Compound 9]”, for which the IC50 was at most 10 nM.
On to `CC#Cc1cc(N)c(F)c(C2Cc3nc(OC[C@@]45CCCN4C[C@H](F)C5)nc(N4CC5CCC(C4)N5)c3CS2(=O)=O)c1C(F)(F)F` (stereo partly drawn) [Compound 21, 7-(3-amino-2-fluoro-5-(prop-1-yn-1-yl)-6-(trifluoromethyl)phenyl)-4-(3,8-diazabicyclo[3.2.1]octane-3-yl)-2-(((2R,7AS)-2-fluorotetrahydro-1H-pyrrolazin-7a(5H)-yl)methoxy)-7,8-dihydro-5H-thiopyrano[4,3-d]pyrimidine-6,6-dioxide], for which the half-maximal inhibitory concentration (IC50) was at most 10 nM.
